One assay deals with GABAB receptors (Homo sapiens, UniProt Q9UBS5). Particulars: cited from earlier work.
Assay [1] deals with CaMK2a (Homo sapiens, UniProt Q9UQM7). Particulars: cited from earlier work.
Assay [2] has as its system hypocretin knock-out mouse model. In words: Hypocretin knock-out mouse model of narcolepsy, sleep-wake EEG/EMG and cataplexy. In kind it is in vivo. Particulars: for cataplexy: mixed-effects model with post hoc Sidak, FIG. 4. An excerpt:
(§1) Using the hypocretin knock-out mouse model we determine changes in sleep-wake EEG/EMG patterns (including cataplexy) at different time points (1 day to 3 weeks) under the influence of a compound (HOCPCA) of Formula I. After drug cessation, EEG/EMG changes are then further mapped for up to 4 weeks. Under anesthesia with isoflurane (2% to 2.5% in O2) electrodes are placed in the scull and neck muscles of the mice. After 5-10 days recovery the electrodes are connected to a recording system, and EEG/EMG signals are recorded with synchronised video recordings. From the data, sleep/wake parameters and cataplexy episodes are scored and calculated (FIG. 4-5).

In assay [3] the test system is DTA narcolepsy mouse model. Kind of assay: DTA mouse model of narcolepsy, sleep-wake EEG/EMG and cataplexy. In kind it is in vivo. The conditions noted are these: two-way ANOVA, p=0.0017, n=5-6; FIG. 3.
Source text: as §1, with “DTA narcolepsy” for “hypocretin knock-out”, “are determining” for “determine”, “sleepwake” for “sleep-wake”, “compound” for “compound (HOCPCA)”, “I (Ph-HTBA).” for “I.”, “FIG. 3).” for “(FIG. 4-5).”

A further assay concerns rat CaMK2a. In words: 3H-HOCPCA filtration binding to recombinant wild-type or mutated CaMK2a expressed in HEK293T cells. The conditions noted are these: hub domain mutations Arg433Gln, Arg453Gln, Arg469Cys/Arg469Gln; HEK whole cell homogenates; expression confirmed by WB; FIG. 2. The method, then:
^3H-HOCPCA Binding to Recombinant CaMK2a Expressed in HEK293T Cells
HEK293T cells were cultured using standard conditions, using Dulbecco's modified Eagle Medium with GlutaMax, 10% fetal bovine serum and 1% penicillin-streptomycin, and incubated at 37° C. in a humidified atmosphere of […] and 5% CO2. Site-directed mutagenesis was done using point mutations and performed by GenScript USA Inc. Cells were transfected with wild-type or mutated cmyc-tagged rat CaMK2a (Origene construct RR201121), using polyethimine, linear, MW 25000 (Polysciences Inc., Warrington, PA, USA). Whole cell homogenates were prepared 48 hr post-transfection by washing the cells with ice-cold 1×PBS and harvesting by scraping. Cells were collected and centrifuged for 10 min at 1000×g. Cell pellets were resuspended in ice-cold 1×PBS and homogenized using 2×1 mm zirkonium beads in a bullet blender for 20 s at max speed (NextAdvance, NY, USA). Homogenates were cleared by centrifugation (10 min, 4° C., […]). Protein concentration was determined using the Bradford protein assay. […] Nonspecific binding was determined with 1-10 mM GHB. […] The dried filters were added scintillation liquid and radioactivity measured on a Tricarb 2100 Scintillation counter (Packard). […]
Total expression levels of CaMK2a were assessed by Western blot with anti-myc-Alexa488 (MA1980-A488, ThermoFisher Scientific). […]

Assay [4] has as its target T1, CaMK2a (Mus musculus, UniProt P11798).
T1 construct: mouse brains from either (Ube3a^m−/p+) or wildtype mice, were dissected, sliced on a cryostat; from tissue; host or cells: mouse brain slices (Ube3a m-/p+ and wild-type)
Kind of assay: Mouse brain 3H-HOCPCA autoradiography (Angelman syndrome Ube3a m-/p+ vs wild-type brain slices). In kind it is binding. The conditions noted are these: Ube3a m-/p+ (HET, Angelman syndrome) mice vs WT; 1 nM radioligand; most pronounced in hippocampus; FIG. 1.

The subject of assay [5] is mouse model of narcolepsy type 1. Particulars: Black et al. J Neurosci 2014; cited from earlier work.

Results on 5 molecules are retold here after patent US12714683B2, “Treatment of CNS disorders with sleep disturbances” (University of Copenhagen, priority 2019, dated 2026).

T1 sequence (P11798 whole entry): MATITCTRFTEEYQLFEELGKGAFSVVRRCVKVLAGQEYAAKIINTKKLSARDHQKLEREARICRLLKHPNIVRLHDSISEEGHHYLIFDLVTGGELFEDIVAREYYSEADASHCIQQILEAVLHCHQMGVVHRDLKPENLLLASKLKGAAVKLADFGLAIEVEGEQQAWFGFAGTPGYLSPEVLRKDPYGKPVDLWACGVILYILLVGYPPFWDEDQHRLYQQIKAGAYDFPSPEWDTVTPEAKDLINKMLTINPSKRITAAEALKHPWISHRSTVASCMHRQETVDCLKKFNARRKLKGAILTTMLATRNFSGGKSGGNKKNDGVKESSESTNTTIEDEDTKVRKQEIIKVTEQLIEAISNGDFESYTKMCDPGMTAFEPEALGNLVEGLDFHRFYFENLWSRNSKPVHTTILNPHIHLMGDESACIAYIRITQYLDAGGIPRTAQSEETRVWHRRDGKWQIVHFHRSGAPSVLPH
Chain of GABAB receptors (Q9UBS5 15-961 limits assumed): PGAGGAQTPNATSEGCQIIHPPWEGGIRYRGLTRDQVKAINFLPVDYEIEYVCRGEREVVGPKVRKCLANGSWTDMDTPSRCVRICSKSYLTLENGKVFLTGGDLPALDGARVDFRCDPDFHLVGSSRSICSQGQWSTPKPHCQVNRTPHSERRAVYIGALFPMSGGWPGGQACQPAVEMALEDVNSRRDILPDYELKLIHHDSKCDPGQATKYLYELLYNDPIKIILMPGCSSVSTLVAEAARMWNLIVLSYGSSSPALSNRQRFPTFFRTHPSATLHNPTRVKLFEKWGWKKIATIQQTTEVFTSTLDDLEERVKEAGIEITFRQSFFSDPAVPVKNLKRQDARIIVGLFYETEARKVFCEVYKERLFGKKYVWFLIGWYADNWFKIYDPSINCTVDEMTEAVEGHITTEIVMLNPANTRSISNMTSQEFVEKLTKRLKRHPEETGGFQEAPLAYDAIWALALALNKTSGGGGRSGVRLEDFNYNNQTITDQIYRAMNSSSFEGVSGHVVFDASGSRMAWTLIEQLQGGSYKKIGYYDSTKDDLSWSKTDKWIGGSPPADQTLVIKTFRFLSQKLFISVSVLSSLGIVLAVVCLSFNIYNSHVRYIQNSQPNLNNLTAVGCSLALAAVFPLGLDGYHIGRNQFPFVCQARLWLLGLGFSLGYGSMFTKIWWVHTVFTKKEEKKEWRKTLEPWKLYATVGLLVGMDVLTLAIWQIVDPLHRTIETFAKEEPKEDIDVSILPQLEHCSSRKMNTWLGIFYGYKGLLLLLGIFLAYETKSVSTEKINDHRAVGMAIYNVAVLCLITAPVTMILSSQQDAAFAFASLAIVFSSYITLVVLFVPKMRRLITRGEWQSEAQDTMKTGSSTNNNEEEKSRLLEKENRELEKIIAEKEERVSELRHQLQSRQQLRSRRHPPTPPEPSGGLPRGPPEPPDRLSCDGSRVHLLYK
Chain of GABAB receptors (O75899 42-941 partner): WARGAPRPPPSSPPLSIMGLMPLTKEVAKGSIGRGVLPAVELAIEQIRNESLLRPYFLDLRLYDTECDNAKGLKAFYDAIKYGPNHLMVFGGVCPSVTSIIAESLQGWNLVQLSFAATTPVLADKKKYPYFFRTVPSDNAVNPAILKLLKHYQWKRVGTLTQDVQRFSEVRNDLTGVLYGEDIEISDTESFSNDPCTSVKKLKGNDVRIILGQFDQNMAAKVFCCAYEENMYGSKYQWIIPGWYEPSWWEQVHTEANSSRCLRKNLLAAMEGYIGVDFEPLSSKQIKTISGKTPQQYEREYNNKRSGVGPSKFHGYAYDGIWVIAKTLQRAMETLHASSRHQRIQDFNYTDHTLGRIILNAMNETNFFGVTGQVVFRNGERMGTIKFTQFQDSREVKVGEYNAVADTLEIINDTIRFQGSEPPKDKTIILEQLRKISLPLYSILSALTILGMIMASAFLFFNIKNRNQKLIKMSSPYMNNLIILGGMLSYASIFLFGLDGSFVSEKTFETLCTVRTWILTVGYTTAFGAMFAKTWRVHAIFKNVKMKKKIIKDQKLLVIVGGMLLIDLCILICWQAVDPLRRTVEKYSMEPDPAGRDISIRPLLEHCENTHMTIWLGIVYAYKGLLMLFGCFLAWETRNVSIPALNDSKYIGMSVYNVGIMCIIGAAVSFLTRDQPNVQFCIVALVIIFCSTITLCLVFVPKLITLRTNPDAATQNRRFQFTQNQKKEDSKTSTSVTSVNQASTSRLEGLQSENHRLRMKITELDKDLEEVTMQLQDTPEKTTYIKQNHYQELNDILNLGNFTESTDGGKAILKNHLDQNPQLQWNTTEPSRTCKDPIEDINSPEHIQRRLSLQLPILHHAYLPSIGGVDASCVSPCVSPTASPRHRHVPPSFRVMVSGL
Chain of CaMK2a (Homo sapiens, UniProt Q9UQM7) (Q9UQM7 whole entry): as the sequence (P11798 whole entry) above, with N324S counted along it

As to `O=C(O)CCCO` [GHB], the “binding affinity to GABAB receptors” value on GABAB receptors was “low affinity (millimolar)”. At CaMK2a [1], the “binding affinity to specific protein in neurons (CaMK2a)” value is “high affinity (nanomolar to micromolar)”.

Turning to `O=C(O)C1=CC(O)CC1` (stereo not drawn) [HOCPCA, 3-hydroxycyclopent-1-enecarboxylic acid], the cataplexy result in assay [2] (day 8, p=0.044) is listed as “decreases cataplexy significantly”; in assay [2] (day 15, p=0.010), “decreases cataplexy significantly”. In addition, the “wakefulness, medium long wake bouts” value in assay [2] (p=0.01, two-way ANOVA with post hoc Dunnett) is on record as “significant decrease of medium long wake bouts”.

Turning to `O=C(O)/C=C1\CCCc2cc(-c3ccccc3)ccc2C1O` (stereo not drawn) [Ph-HTBA], the “treatment effect on sleep/wake parameters and cataplexy episodes” value in assay [3] is “overall statistical significant effect”.

Take `O=C(O)C1=CC(O)CC1` (stereo not drawn) [^3H-HOCPCA]: the “3H-HOCPCA binding to mutated CaMK2a compared to wild-type” value in the assay on rat CaMK2a is “completely abolished binding”. Moreover, the “3H-HOCPCA binding levels in brain slices” value on CaMK2a [4] is given as “Increased Binding”.

As for `NCC(CC(=O)O)c1ccc(Cl)cc1` (stereo not drawn) [baclofen], the “efficacy on narcolepsy symptoms” value in assay [5] is reported as “has efficacy on narcolepsy symptoms”.
